In patent US8030547B2, “Gene coding for acetolactate synthase” (priority 2002, dated 2011):

Experiments:
Type in all cases: cell-based, Oryza sativa var. Kinmaze
[1] = system: wild type (Kinmaze) rice culture cells; experiment: Growth of rice culture cells (relative wet weight of callus) in the presence of herbicide, wild type
Method: (§1) Approximately 1.5 g (wet weight) of the resistant mutant was transplanted into a 200 ml Erlenmeyer flask supplemented with 50 ml of a MS-2,4-D liquid medium and bispyribac-sodium at a certain concentration, followed by culturing at approximately 27° C. for a certain period. The wet weight of the callus was measured periodically. The relative amount of increase was determined based on the wet weight of the transplanted resistant mutant. In addition, the experiment was performed three times with different bispyribac-sodium concentrations, and the standard error was calculated. FIGS. 3 to 6 show the relation between changes in bispyribac-sodium concentration and the relative weight on day 8 or 12 in the resistant mutant. As a control, a similar experiment was conducted using the wild type (Kinmaze).
Also, in the case of using chlorsulfuron instead of bispyribac-sodium, the growth rates of the wild type and the resistant mutants were measured as described above. […] Further, FIGS. 9 to 12 show the relation between changes in chlorsulfuron concentration and relative weight on day 8 or 10 in the resistant mutants, that is, Rb line, Sr line, Ga line and Vg line.

[2] = system: Vg line resistant mutant rice culture cells; experiment: Growth of rice culture cells (relative wet weight of callus) in the presence of herbicide, Vg line
Method: (§2) Next, endosperm portions were removed from the callus induced on the medium, and then subculture was performed. Then, part of the obtained calli was sub-cultured, that is, cultured successively once per two weeks in a liquid medium (the composition is the same as in that shown in Table 3, but not supplemented with Gelrite) supplemented with 1 μM bispyribac-sodium (one type of PC herbicides). Two to 6 weeks later the culture cells started to wither. About 2 months later, a plurality of non-discolored cell masses that were thought to be conducting cell division were obtained from among culture cell populations most of which had died and became discolored brown. These cell masses were isolated and cultured, so that a plurality of cell lines that can proliferate in the presence of 2 μM bispyribac-sodium were obtained. […]
as §1, with “FIGS. 3 to 6 show the relation between changes in bispyribac-sodium concentration and the relative weight on day 8 or 12 in the resistant mutant. As a control, a similar experiment was conducted using the wild type (Kinmaze).” left out

[3] = system: Ga line resistant mutant rice culture cells; experiment: Growth of rice culture cells (relative wet weight of callus) in the presence of herbicide, Ga line
Method: as §2
as §1, with “FIGS. 3 to 6 show the relation between changes in bispyribac-sodium concentration and the relative weight on day 8 or 12 in the resistant mutant. As a control, a similar experiment was conducted using the wild type (Kinmaze).” left out

[4] = group supplemented with 1 nM herbicide, day 8 (bispyribac-sodium) or day 9 (chlorsulfuron)

| Structure (SMILES) | growth of the wild type (relative weight) [1, 4] | growth of Vg line on addition of herbicide (relative weight) ([2]; day 8 or 10) | growth of Ga line on addition of herbicide (relative weight) ([3]; day 8 or 10) | growth of the wild type (relative weight) ([1]; group supplemented with 10 nM or more, day 8) | effect on the growth of Vg line ([2]; compared with wild type, day 8 or 12) | growth of Ga line (relative weight) ([3]; group supplemented with 10 μM, day 8 or 12) |
| --- | --- | --- | --- | --- | --- | --- |
| COc1nc(C)nc(NC(=O)NS(=O)(=O)c2ccccc2Cl)n1 [chlorsulfuron] | inhibited | not inhibited so much | not inhibited so much | – | – | – |
| COc1cc(OC)nc(Oc2cccc(Oc3nc(OC)cc(OC)n3)c2C(=O)O)n1 [bispyribac-sodium] | not inhibited | – | – | inhibited | smaller than that in the wild type | almost none of the growth |
